The values below come from patent publication US11976054B2, “Amide derivative and preparation method therefore and use thereof in medicine” (Chengdu Baiyu Pharmaceutical Co., Ltd., priority 2019, dated 2024).

The structures appear in SMILES notation.

In the first data set the test system is Human monocyte cell line THP-1. Briefly: Detection of THP-1 cell pyroptosis (Caspase-Glo 1 Inflammasome Assay). Format: cell-based. The conditions noted are these: THP-1 pyroptosis, 20 nM PMA 48 h, 1 μg/mL LPS, compound 3 h. How it is done: Human monocyte cell line THP-1 (ATCC® TB-202TM) was cultured in RPMI-1640 culture medium containing […], 1 mM pyruvic acid, 0.05 mM β-mercaptoethanol and 10% double antibody under the culture conditions of 37° C. and […].
Cell counting was performed, THP-1 cells were seeded into a 96-well plate at 50000 per well, and 20 nM PMA was added for inducing at 37° C./5% CO2 for 48 h. The culture medium was then discarded, and 100 μL of serum-free RPMI-1640 medium containing 1 μg/mL LPS was added. 5 μL of compound or solvent control was added and 3-fold diluted in gradient from a maximum concentration of 10 μM, and 10 gradient concentrations were set. The mixtures were incubated at 37° C./5% CO2 for 3 h. After the incubation, the mixtures were centrifuged at 300 g for 5 min, and the culture medium was discarded. Pyroptosis assay was performed according to specific steps described in instructions of Caspase-Glo® 1 Inflammasome Assay kit. IC50 was calculated using GraphPad Prism7.0 software.
The compound `C[C@@H](c1ccc2c(c1NC(=O)NS(=N)(=O)c1cc(C(C)(C)O)co1)CC2)C1CC1` (mixture of isomers) [Compound 38-2, RS- and SS-N-((3-((R)-1-cyclopropylethyl)bicyclo[4.2.0]octa-1(6),2,4-trien-2-yl)carbamoyl)-4-(2-hydroxypropan-2-yl)furan-2-sulfonimidamide] returned an IC50 of 1000 to 5000 nM.

As to `CC(c1ccc2c(c1NC(=O)NS(=N)(=O)c1cnc(C(C)(C)O)s1)CCC2)C1CC1` (racemic) [Compound 20-2, (RS, SC)- and (SS, SC)-N-((5-(1-cyclopropylethyl)-2,3-dihydro-1H-inden-4-yl)carbamoyl)-2-(2-hydroxypropan-2-yl)thiazole-5-sulfonimidamide], the IC50 fell in the range of 100 to 500 nM.

In turn, `Cc1oc(S(=N)(=O)NC(=O)Nc2c(C(C)C3CC3)ccc3c2CCC3)cc1C(C)(C)O` (racemic) [Compound 25-1, (RS, SC)- and (SS, SC)-N-((5-(1-cyclopropylethyl)-2,3-dihydro-1H-inden-4-yl)carbamoyl)-4-(2-hydroxypropan-2-yl)-5-methylfuran-2-sulfonimidamide] displayed an IC50 of no more than 100 nM.

In the case of `Cc1oc(S(=N)(=O)NC(=O)Nc2c(C(C)C3CC3)ccc3c2CCC3)cc1C(C)(C)O` (racemic) [Compound 25-2, (RS, SC)- and (SS, SC)-N-((5-(1-cyclopropylethyl)-2,3-dihydro-1H-inden-4-yl)carbamoyl)-4-(2-hydroxypropan-2-yl)-5-methylfuran-2-sulfonimidamide], the IC50 lay in the range of 100 to 500 nM.

`CC(c1ccc2c(c1NC(=O)NS(=N)(=O)c1cc(C(C)(C)O)co1)CC2)C1CC1` (racemic) [Compound 36-2, (RS, SC)- and (SS, SC)-N-((3-(1-cyclopropylethyl)bicyclo[4.2.0]octa-1(6),2,4-trien-2-yl)carbamoyl)-4-(2-hydroxypropan-2-yl)furan-2-sulfonimidamide] had an IC50 of 1000 to 5000 nM.

Turning to `CC(c1cc(C#N)c2c(c1NC(=O)NS(=N)(=O)c1cc(C(C)(C)O)co1)CCC2)C1CC1` (racemic) [Compound 46-1, (RS, RC)- and (SS, RC)-N-((7-cyano-5-(1-cyclopropylethyl)-2,3-dihydro-1H-inden-4-yl)carbamoyl)-4-(2-hydroxypropan-2-yl)furan-2-sulfonimidamide], the IC50 lay within 100 to 500 nM.

For `CC(c1cc(C#N)c2c(c1NC(=O)NS(=N)(=O)c1cc(C(C)(C)O)co1)CCC2)C1CC1` (racemic) [Compound 46-2, (RS, RC)- and (SS, RC)-N-((7-cyano-5-(1-cyclopropylethyl)-2,3-dihydro-1H-inden-4-yl)carbamoyl)-4-(2-hydroxypropan-2-yl)furan-2-sulfonimidamide], the IC50 lay in the range of 100 to 500 nM.

Compound `CC(c1cc(C#N)c2c(c1NC(=O)NS(=N)(=O)c1cc(C(C)(C)O)co1)CCC2)C1CC1` (racemic) [Compound 48-1, (RS, SC)- and (SS, SC)-N-((7-cyano-5-(1-cyclopropylethyl)-2,3-dihydro-1H-inden-4-yl)carbamoyl)-4-(2-hydroxypropan-2-yl)furan-2-sulfonimidamide] came in with an IC50 of 100 to 500 nM.

On to `CC(c1cc(C#N)c2c(c1NC(=O)NS(=N)(=O)c1cc(C(C)(C)O)co1)CCC2)C1CC1` (racemic) [Compound 48-2, (RS, SC)- and (SS, SC)-N-((7-cyano-5-(1-cyclopropylethyl)-2,3-dihydro-1H-inden-4-yl)carbamoyl)-4-(2-hydroxypropan-2-yl)furan-2-sulfonimidamide], for which the IC50 fell in the range of 1000 to 5000 nM.

`CC(c1ccc2c(c1NC(=O)NS(=N)(=O)c1ccc(C(C)(C)O)s1)CCC2)C1CC1` (racemic) [Compound 51-2, (RS, SC)- and (SS, SC)-N-((5-(1-cyclopropylethyl)-2,3-dihydro-1H-inden-4-yl)carbamoyl)-5-(2-hydroxypropan-2-yl)thiophene-2-sulfonimidamide] came in with an IC50 of 5000 to 10000 nM.

Take `CC(c1ccc2c(c1NC(=O)NS(=N)(=O)c1cc(C(C)(C)O)co1)CCC2)C1CC1` (racemic) [Compound 52-1, (RS, SC)- and (SS, SC)-N-((5-(1-cyclopropylethyl)-2,3-dihydro-1H-inden-4-yl)carbamoyl)-4-(2-hydroxypropan-2-yl)furan-2-sulfonimidamide]: the IC50 lay within 1000 to 5000 nM.

Turning to `CC(C)(O)c1ccc(S(=N)(=O)NC(=O)Nc2c(CC3CCC3)ccc3c2CCC3)s1` (racemic) [Compound 53-2, (RS)- and (SS)-N-((5-(cyclobutylmethyl)-2,3-dihydro-1H-inden-4-yl)carbamoyl)-5-(2-hydroxypropan-2-yl)thiophene-2-sulfonimidamide], the IC50 lay within 100 to 500 nM.

The compound `CC(C)c1cccc([C@@H](C)C2CC2)c1NC(=O)NS(=N)(=O)c1cc(C(C)(C)O)co1` (mixture of isomers) [Compound 73-1, (RS, SC) and (SS, SC)-N-((2-(1-cyclopropylethyl)-6-isopropylphenyl)carbamoyl)-4-(2-hydroxypropan-2-yl)furan-2-sulfonimidamide] had an IC50 of no more than 100 nM.

`CC(C)c1cccc([C@@H](C)C2CC2)c1NC(=O)NS(=N)(=O)c1cc(C(C)(C)O)co1` (mixture of isomers) [Compound 73-2, (RS, SC) and (SS, SC)-N-((2-(1-cyclopropylethyl)-6-isopropylphenyl)carbamoyl)-4-(2-hydroxypropan-2-yl)furan-2-sulfonimidamide] had an IC50 of 1000 to 5000 nM.

On to `CC(C)c1cccc(C(C)C2CC2)c1NC(=O)NS(=N)(=O)c1cc(C(C)(C)O)co1` (racemic) [Compound 74-1, (RS, RC)- and (SS, RC)-N-((2-(1-cyclopropylethyl)-6-isopropylphenyl)carbamoyl)-4-(2-hydroxypropan-2-yl)furan-2-sulfonimidamide], for which the IC50 is no more than 100 nM.

In turn, `CC(C)c1cccc(C(C)C2CC2)c1NC(=O)NS(=N)(=O)c1cc(C(C)(C)O)co1` (racemic) [Compound 74-2, (RS, RC)- and (SS, RC)-N-((2-(1-cyclopropylethyl)-6-isopropylphenyl)carbamoyl)-4-(2-hydroxypropan-2-yl)furan-2-sulfonimidamide] displayed an IC50 of 1000 to 5000 nM.

For `C[C@@H](c1ccc2c(c1NC(=O)NS(=N)(=O)c1cc(C(C)(C)O)co1)CCC2)C1CCC1` (mixture of isomers) [Compound 80-1, (RS)- and (SS)-N-((5-((R)-1-cyclobutylethyl)-2,3-dihydro-1H-inden-4-yl)carbamoyl)-4-(2-hydroxypropan-2-yl)furan-2-sulfonimidamide], the IC50 fell in the range of 100 to 500 nM.

The compound `CC(C)(O)c1ncc(S(=N)(=O)NC(=O)Nc2c(CC3CCC3)ccc3c2CCC3)s1` (single isomer, unassigned) [Compound 19-1, RS- and SS-N-((5-(cyclobutylmethyl)-2,3-dihydro-1H-inden-4-yl)carbamoyl)-2-(2-hydroxypropan-2-yl)thiazole-5-sulfonimidamide] returned an IC50 of 1000 to 5000 nM.

The compound `CC(C)(O)c1ncc(S(=N)(=O)NC(=O)Nc2c(CC3CCC3)ccc3c2CCC3)s1` (single isomer, unassigned) [Compound 19-2, RS- and SS-N-((5-(cyclobutylmethyl)-2,3-dihydro-1H-inden-4-yl)carbamoyl)-2-(2-hydroxypropan-2-yl)thiazole-5-sulfonimidamide] registered an IC50 of 100 to 500 nM.

Take `Cc1oc(S(=N)(=O)NC(=O)Nc2c(C(C)C3CC3)ccc3c2CCC3)cc1C(C)(C)O` (single isomer, unassigned) [Compound 24-1, RS- and SS-N-((5-(1-cyclopropylethyl)-2,3-dihydro-1H-inden-4-yl)carbamoyl)-4-(2-hydroxypropan-2-yl)-5-methylfuran-2-sulfonimidamide]: the IC50 was 100 to 500 nM.

For `[2H]c1cc([C@@H](C)C2CC2)c(NC(=O)NS(=N)(=O)c2cc(C(C)(C)O)co2)c2c1CCC2` (single isomer, unassigned) [Compound 32-1, (RS, SC)- and (SS, SC)-N-((5-(1-cyclopropylethyl)-2,3-dihydro-1H-inden-4-yl-7-d)carbamoyl)-4-(2-hydroxypropan-2-yl)furan-2-sulfonimidamide], the IC50 is 1000 to 5000 nM.

System in a further data set: not listed separately
The experiment in a line: Pharmacokinetic analysis of compounds in rats. Format: in vivo, SD rats. Particulars: SD, rat, in vivo, iv, 1 mg/kg. How it is done:
Healthy adult SD rats weighing 180-220 g were fasted (free access to water) overnight and divided into tail vein administration group and intragastric administration group. The tail vein administration group was subjected to blood collection of 0.1 mL from orbital venous plexus before the administration and 5 min, 15 min, 0.5 h, 1 h, 2 h, 4 h, 8 h, 12 h and 24 h after the administration, and plasma was separated out by centrifugation at 4° C. for 5 min and stored at −20° C. for test. The intragastric administration group was subjected to blood collection of 0.1 mL from orbital venous plexus before the administration and 5 min, 15 min, 0.5 h, 1 h, 2 h, 4 h, 8 h, 12 h and 24 h after the administration, and the subsequent treatment procedures were the same as those of the tail vein injection group. The concentration of parent drug in the plasma was determined by LC-MS/MS.
Compound `CC(C)(O)c1coc(S(=O)(=O)NC(=O)Nc2c3c(cc4c2CCC4)CCC3)c1` [Control 3, 1-(1,2,3,5,6,7-hexahydro-s-indacen-4-yl)-3-[4-(1-hydroxy-1-methyl-ethyl)-furan-2-sulfonyl]urea, reference compound] gave an area under the curve (AUC) of 1400 ng·h/mL, a Vd of 0.402 L/kg, a clearance of 14.2 mL/min/kg and a half-life of 0.46 h.

The data set is the same for the next values; noted with them: SD, rat, in vivo, po.
In turn, `CC(C)(O)c1coc(S(=O)(=O)NC(=O)Nc2c3c(cc4c2CCC4)CCC3)c1` [Control 3, 1-(1,2,3,5,6,7-hexahydro-s-indacen-4-yl)-3-[4-(1-hydroxy-1-methyl-ethyl)-furan-2-sulfonyl]urea, reference compound] gave a bioavailability of 36.4%.

Still in this data set, the particulars now being: SD, rat, in vivo, po, 10 mg/kg.
Compound `CC(C)(O)c1coc(S(=O)(=O)NC(=O)Nc2c3c(cc4c2CCC4)CCC3)c1` [Control 3, 1-(1,2,3,5,6,7-hexahydro-s-indacen-4-yl)-3-[4-(1-hydroxy-1-methyl-ethyl)-furan-2-sulfonyl]urea, reference compound] gave an AUC of 5080 ng·h/mL, a Cmax of 1930 ng/mL and a half-life of 2.1 h.

One may read the IC50 as the concentration that gives 50% inhibition. Read a low IC50 as greater potency in that assay. A word on the AUC: it is concentration integrated over time. By Vd is commonly meant a proportionality between amount in the body and measured concentration, not a real space. For orientation: clearance means the volume of plasma or blood freed of the substance per unit of time. Read a high clearance as efficient removal. In general, half-life refers to how long it takes for the measured level to halve. A lower half-life goes with fast loss. A word on the bioavailability: it is the share of a dose that reaches the circulation, judged against a reference dose that is usually intravenous. Low values mean poor availability, high ones good availability. By Cmax is commonly meant the maximum level reached in the sampled fluid or tissue.
